One assay has as its system XDR-E. coli. Description: Drug sensitivity test of clinical strains (Table S2). It is filed as cell-based, Escherichia coli. Particulars: value in brackets; for MIC: Escherichia coli.
The subject of the next assay is XDR-AB. The assay is described as above. The class given is cell-based, Acinetobacter baumannii. Particulars: value in brackets; for MIC: Acinetobacter baumannii.
Another assay relates to XDR-PA. The assay is described as above. It is filed as cell-based, Pseudomonas aeruginosa. Particulars: value in brackets; for MIC: Pseudomonas aeruginosa.
The test system of the next assay is XDR-Kp. The assay is described as above. It is filed as cell-based, Klebsiella pneumoniae. Particulars: value in brackets; for MIC: Klebsiella pneumoniae.
The test system of assay [1] is XDR-Kp (clinically isolated XDR Klebsiella pneumoniae). Description: Minimum inhibitory concentration, broth dilution (Table S1). It is filed as cell-based. Particulars: CLSI guidelines, 10^5 CFU mL−1, 24 h, 37 °C, visible growth. As to the method:
(§1) Four clinically isolated XDR strains were cultured in LB media at 37 °C with rotation (180 rpm) overnight. […] The bacterial concentration was adjusted to 10^5 CFU mL^−1.
For orientation: Broth dilution looks for growth in wells or tubes with falling amounts of substance.

Assay [2] concerns XDR-AB (clinically isolated XDR Acinetobacter baumannii). Described as above. The class given is cell-based. Particulars: CLSI guidelines, 10^5 CFU mL−1, 24 h, 37 °C, visible growth. As to the method: as §1
Assay [3] deals with XDR-E. coli (clinically isolated XDR Escherichia coli). Described as above. It is filed as cell-based. Particulars: CLSI guidelines, 10^5 CFU mL−1, 24 h, 37 °C, visible growth. Here is the method:
as §1

Assay [4] has as its system XDR-PA (clinically isolated XDR Pseudomonas aeruginosa). The assay is described as above. The class given is cell-based. Particulars: CLSI guidelines, 10^5 CFU mL−1, 24 h, 37 °C, visible growth. Here is the method:
as §1

Values after ≈ are worked out from the molar mass of the structure shown.

Take `NCC[C@H](O)C(=O)N[C@@H]1C[C@H](N)[C@@H](O[C@H]2O[C@H](CN)[C@@H](O)[C@H](O)[C@H]2O)[C@H](O)[C@H]1O[C@H]1O[C@H](CO)[C@@H](O)[C@H](N)[C@H]1O` [Amikacin]: the MIC in the assay with XDR-E. coli, against XDR-AB, against XDR-PA and in the assay with XDR-Kp was at least 64 µg/mL in each case.
For `CC1(C)S[C@@H]2[C@H](NC(=O)[C@H](N)c3ccccc3)C(=O)N2[C@H]1C(=O)O` [Ampicillin], the MIC in the assay with XDR-E. coli, in the assay with XDR-AB, in the assay with XDR-PA and in the assay on XDR-Kp was at least 32 µg/mL each time.
As to `Cc1nnc(SCC2=C(C(=O)O)N3C(=O)[C@@H](NC(=O)Cn4cnnn4)[C@H]3SC2)s1` [Cefazolin], the MIC against XDR-E. coli, in the assay with XDR-AB, against XDR-PA and in the assay on XDR-Kp was at least 64 µg/mL throughout.
Take `CO/N=C(\C(=O)N[C@@H]1C(=O)N2C(C(=O)[O-])=C(C[N+]3(C)CCCC3)CS[C@H]12)c1csc(N)n1` [Cefepime]: the MIC in the assay on XDR-E. coli, with XDR-AB, in the assay on XDR-PA and with XDR-Kp was at least 64 µg/mL throughout.
In the case of `CO[C@@]1(NC(=O)C2SC(=C(C(N)=O)C(=O)O)S2)C(=O)N2C(C(=O)O)=C(CSc3nnnn3C)CS[C@@H]21` (some centres unmarked) [Cefotetan], the MIC in the assay with XDR-E. coli, against XDR-AB, in the assay on XDR-PA and against XDR-Kp was at least 64 µg/mL throughout.
For `CC(C)(O/N=C(\C(=O)N[C@@H]1C(=O)N2C(C(=O)[O-])=C(C[n+]3ccccc3)CS[C@H]12)c1csc(N)n1)C(=O)O` [Ceftazidime], the minimum inhibitory concentration (MIC) against XDR-E. coli, in the assay on XDR-AB, against XDR-PA and against XDR-Kp was at least 64 µg/mL throughout.
In the case of `C[C@@H](O)[C@H]1C(=O)N2C(C(=O)O)=C(SCCN=CN)C[C@H]12` [Imipenem], the MIC against XDR-E. coli, with XDR-AB, against XDR-PA and in the assay on XDR-Kp was at least 16 µg/mL throughout.
Consider `C[C@H]1COc2c(N3CCN(C)CC3)c(F)cc3c(=O)c(C(=O)O)cn1c23` [Levofloxacin], for which the MIC (commonly the least concentration at which growth counts as inhibited) in the assay with XDR-E. coli was 11 µg/mL (≈ 30.4 µM); in the assay with XDR-AB, at least 8 µg/mL; in the assay with XDR-PA, at least 8 µg/mL; against XDR-Kp, at least 8 µg/mL.
In the case of `CN(C)c1cc(NC(=O)CNC(C)(C)C)c(O)c2c1C[C@H]1C[C@H]3[C@H](N(C)C)C(O)=C(C(N)=O)C(=O)[C@@]3(O)C(O)=C1C2=O` [Tigecycline], the minimum inhibitory concentration (MIC) in the assay with XDR-AB was 0.38 µg/mL (≈ 0.649 µM).
Consider `NC[C@H]1O[C@H](O[C@H]2[C@H](O)[C@@H](O[C@H]3O[C@H](CO)[C@@H](O)[C@H](N)[C@H]3O)[C@H](N)C[C@@H]2N)[C@H](N)C[C@@H]1O` [Tobramycin], for which the MIC in the assay with XDR-E. coli, with XDR-AB, with XDR-PA and against XDR-Kp was at least 16 µg/mL in each case.
For Gentamycin, the “MIC (drug sensitivity test)” value with XDR-E. coli, against XDR-AB, in the assay with XDR-PA and with XDR-Kp was “>= 16 µg mL-1” in each case.
With Polymyxin B [PMB], the “MIC (drug sensitivity test)” value against XDR-E. coli and against XDR-PA was 0.5 µg/mL each time. Also, the MIC in assay [1] stood at 16 µg/mL; in assay [2] it was 32 µg/mL; in assay [3], 16 µg/mL; in assay [4], 8 µg/mL.

The record behind these values is paper PMC11434100, “Biomimetic Metal–Organic Framework Gated Nanoplatform for Sonodynamic Therapy against Extensively Drug Resistant Bacterial Lung Infection” (Advanced Science, 2024).
